The target of the experiment is T1, N-type calcium channel (Homo sapiens, UniProt Q00975).
T1 construct: expressed in transfected cells; host or cells: HEK 293
Put plainly: Patch-Clamp blockade of voltage-dependent N-type calcium channels in recombinant HEK 293 cells. Type of experiment: cell-based. The source says: The antinociceptive activity of the compounds of this invention is based on a blockade of the voltage-dependent N-type calcium channels. This inhibiting activity is detected electrophysiologically by the Patch-Clamp technique (cf: Improved patch-clamp techniques for high resolution current recording from cells and cell-free membrane patches; Hamill et al.; Pflügers Archiv, 391, 1981, 85-100) on recombinant HEK 293 cells which express the N-type calcium channel.

[1] abbreviates: Patch-Clamp technique, recombinant HEK 293 cells which express the N-type calcium channel, read-out: IC50 values.
Where [2] appears, read: N-type calcium channel, Patch-Clamp, HEK 293 cells, read-out: IC50 value.

Where two headings read alike, the source gives them in different places.

T1 sequence (Q00975 whole entry): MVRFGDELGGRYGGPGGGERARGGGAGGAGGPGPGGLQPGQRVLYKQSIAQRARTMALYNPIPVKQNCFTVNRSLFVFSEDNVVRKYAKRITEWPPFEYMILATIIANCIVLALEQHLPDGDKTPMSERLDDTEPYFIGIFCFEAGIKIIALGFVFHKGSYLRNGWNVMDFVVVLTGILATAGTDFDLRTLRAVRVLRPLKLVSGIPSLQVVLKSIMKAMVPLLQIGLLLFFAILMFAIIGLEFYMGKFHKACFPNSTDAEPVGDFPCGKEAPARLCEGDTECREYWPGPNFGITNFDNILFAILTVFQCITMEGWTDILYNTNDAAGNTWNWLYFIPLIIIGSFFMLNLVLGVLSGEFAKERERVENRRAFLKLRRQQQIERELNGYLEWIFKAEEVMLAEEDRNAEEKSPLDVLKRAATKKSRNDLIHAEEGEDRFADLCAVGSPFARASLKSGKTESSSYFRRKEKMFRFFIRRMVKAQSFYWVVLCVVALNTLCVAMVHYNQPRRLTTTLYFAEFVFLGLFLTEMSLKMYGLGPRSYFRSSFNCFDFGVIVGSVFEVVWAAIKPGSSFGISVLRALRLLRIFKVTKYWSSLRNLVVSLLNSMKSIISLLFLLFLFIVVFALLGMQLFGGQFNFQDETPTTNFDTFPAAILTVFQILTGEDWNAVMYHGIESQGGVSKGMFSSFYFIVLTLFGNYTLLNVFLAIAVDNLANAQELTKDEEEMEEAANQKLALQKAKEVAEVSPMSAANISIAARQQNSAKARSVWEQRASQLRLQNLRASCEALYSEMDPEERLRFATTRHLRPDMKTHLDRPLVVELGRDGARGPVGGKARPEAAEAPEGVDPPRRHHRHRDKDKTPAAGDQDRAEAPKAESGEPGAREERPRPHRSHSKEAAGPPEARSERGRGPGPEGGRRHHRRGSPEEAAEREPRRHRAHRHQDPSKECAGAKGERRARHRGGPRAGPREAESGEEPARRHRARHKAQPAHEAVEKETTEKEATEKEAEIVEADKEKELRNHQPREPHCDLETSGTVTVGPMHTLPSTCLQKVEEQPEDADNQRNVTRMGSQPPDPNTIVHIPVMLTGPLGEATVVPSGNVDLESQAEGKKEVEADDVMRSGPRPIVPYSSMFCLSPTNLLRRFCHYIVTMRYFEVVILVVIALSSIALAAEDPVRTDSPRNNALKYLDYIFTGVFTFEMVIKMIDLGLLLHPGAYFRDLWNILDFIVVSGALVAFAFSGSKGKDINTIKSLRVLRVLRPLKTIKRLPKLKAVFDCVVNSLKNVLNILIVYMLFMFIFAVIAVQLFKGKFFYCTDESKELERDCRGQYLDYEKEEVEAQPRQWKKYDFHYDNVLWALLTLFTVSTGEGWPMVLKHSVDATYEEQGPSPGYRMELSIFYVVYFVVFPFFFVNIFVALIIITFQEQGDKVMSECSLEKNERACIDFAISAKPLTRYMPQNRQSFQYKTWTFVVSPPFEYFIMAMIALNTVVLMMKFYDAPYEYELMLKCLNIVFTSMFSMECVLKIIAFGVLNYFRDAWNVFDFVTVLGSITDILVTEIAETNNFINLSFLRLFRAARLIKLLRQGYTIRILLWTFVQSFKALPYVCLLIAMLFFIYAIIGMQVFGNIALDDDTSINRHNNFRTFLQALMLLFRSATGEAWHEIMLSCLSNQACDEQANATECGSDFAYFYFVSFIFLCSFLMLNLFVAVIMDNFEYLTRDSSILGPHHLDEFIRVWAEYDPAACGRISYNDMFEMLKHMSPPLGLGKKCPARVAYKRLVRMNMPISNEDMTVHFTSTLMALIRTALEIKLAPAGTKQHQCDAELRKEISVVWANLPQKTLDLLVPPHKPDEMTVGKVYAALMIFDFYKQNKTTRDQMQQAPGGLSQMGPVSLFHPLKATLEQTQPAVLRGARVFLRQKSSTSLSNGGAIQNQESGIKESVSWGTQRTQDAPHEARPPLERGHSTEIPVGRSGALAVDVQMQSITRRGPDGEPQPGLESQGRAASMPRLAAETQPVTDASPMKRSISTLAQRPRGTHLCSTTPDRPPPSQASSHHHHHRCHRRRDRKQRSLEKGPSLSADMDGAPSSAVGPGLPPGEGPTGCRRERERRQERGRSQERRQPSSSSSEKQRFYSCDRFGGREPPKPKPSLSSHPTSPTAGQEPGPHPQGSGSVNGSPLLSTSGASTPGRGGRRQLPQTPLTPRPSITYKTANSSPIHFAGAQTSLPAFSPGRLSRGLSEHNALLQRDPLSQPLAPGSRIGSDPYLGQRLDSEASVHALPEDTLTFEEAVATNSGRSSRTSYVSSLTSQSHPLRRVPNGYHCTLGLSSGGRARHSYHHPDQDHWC
T1 sequence (P54289 25-956 partner limits assumed): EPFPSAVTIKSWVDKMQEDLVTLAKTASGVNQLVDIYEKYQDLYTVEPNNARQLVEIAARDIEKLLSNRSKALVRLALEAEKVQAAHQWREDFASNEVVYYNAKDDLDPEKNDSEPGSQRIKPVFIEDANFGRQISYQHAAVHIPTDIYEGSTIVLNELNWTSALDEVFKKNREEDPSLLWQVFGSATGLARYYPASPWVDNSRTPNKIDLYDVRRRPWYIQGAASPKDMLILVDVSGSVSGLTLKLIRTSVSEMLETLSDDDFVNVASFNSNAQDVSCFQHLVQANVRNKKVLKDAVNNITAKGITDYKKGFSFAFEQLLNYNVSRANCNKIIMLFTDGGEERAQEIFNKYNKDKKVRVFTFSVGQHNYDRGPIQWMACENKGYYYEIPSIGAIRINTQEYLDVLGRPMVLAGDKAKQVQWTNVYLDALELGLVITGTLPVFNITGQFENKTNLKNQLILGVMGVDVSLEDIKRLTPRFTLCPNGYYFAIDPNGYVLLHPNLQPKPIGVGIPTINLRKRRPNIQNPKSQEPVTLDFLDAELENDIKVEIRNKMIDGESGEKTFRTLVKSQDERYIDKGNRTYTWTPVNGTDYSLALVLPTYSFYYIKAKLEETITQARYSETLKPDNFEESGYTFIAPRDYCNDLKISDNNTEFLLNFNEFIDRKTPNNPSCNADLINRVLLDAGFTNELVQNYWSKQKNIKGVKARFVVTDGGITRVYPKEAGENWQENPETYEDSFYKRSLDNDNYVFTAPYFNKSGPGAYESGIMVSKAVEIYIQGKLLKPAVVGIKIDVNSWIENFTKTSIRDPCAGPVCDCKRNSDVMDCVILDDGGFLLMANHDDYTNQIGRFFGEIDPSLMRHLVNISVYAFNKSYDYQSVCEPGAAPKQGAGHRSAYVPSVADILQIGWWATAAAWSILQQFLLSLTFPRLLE
T1 sequence (P54289 957-1103 partner limits assumed): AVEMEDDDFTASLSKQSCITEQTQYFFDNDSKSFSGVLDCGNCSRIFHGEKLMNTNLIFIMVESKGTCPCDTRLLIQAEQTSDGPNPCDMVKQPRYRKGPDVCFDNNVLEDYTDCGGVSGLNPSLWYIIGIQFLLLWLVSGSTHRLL
T1 sequence (P54284 whole entry partner): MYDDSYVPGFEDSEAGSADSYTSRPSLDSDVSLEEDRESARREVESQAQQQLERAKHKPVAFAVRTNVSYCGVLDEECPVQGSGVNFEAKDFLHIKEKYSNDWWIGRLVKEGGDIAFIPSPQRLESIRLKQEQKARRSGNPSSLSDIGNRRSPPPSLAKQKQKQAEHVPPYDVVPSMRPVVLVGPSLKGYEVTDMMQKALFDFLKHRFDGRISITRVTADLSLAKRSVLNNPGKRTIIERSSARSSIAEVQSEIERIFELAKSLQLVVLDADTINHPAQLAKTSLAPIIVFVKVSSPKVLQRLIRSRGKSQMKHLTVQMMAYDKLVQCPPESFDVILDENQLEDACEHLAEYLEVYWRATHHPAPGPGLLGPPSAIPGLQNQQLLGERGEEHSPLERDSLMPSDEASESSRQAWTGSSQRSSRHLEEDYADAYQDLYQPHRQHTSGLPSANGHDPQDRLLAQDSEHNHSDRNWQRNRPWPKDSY

For `CN(C)c1cc(-c2cccc(F)c2)nc2ccc3c(ncn3C)c12` [Example 3, 9-dimethylamino-7-(3-fluorophenyl)-3-methyl-3H-imidazo [4,5-f]quinoline], the IC50 value entry (N-type calcium channel, Patch-Clamp, HEK 293 cells) is recorded as “biphasic”. Consider `CNc1cc(-c2cccc(F)c2)nc2ccc3sc(C)nc3c12` [Example 6, 7-(3-fluorophenyl)-2-methyl-9-methylamino thiazolo[4,5-f]quinoline], for which, under setting [1], the IC50 amounted to 2 µM. Turning to `CN(C)c1cc(-c2cccc(F)c2)nc2ccc3ncsc3c12` [Example 5, 9-dimethylamino-7-(3-fluorophenyl)-thiazolo[5,4-f]quinoline], the IC50 under setting [2] is 14.3 µM. Same read-out and setting: the figure for `CNc1cc(-c2ccncc2)nc2ccc3c(ncn3C)c12` [Example 1, 3-methyl-9-methylamino-7-(pyridin-4-yl)-3H-imidazo[4,5-f]quinoline] is 9.9 µM. Turning to `Cc1nc2c(ccc3nc(-c4cccc(F)c4)cc(N(C)C)c32)s1` [Example 4, 9-dimethylamino-7-(3-fluorophenyl)-2-methyl-thiazolo[4,5-f]quinoline], the IC50 under setting [1] is 3.6 µM. For the compound `CNc1cc(-c2cccc(F)c2)nc2ccc3c(ncn3C)c12` [Example 2, 7-(3-fluorophenyl)-3-methyl-9-methylamino-3H-imidazo [4,5-f]quinoline], the IC50 under setting [2] was determined as 15.2 µM.

One may read the IC50 as the concentration at which inhibition is half-maximal.
